Test results: PubChem BioAssay AID1963965 (Molecular Pharmacology Branch, DTP, NCI, 2024)

System: 996289-038-R-J1-PDC spheroid viability
Test: Anticancer human tumor 996289-038-R-J1-PDC patient-derived colon adenocarcinoma cell line growth inhibition [PI3K]
Settings: spheroids with HUVEC and MSC; for IC50: curve of first compound; for viability, T/C: stronger effect = lower value
Method in brief: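 Targeted small molecules plus PI3K inhibitors, half-log dose series from Cmax (default top 10 microM), were applied to heterotypic spheroids of cancer cells with HUVEC and MSCs. Viability indicated growth inhibition.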
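Note: spheroids exposed to compounds for seven days before viability read.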
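Throughout, for viability, T/C: luminescence used as a proxy for viable cell amount; percent viability relative to DMSO vehicle control as 100%.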

CC(C)NCC(C(=O)N1CCN(c2ncnc3c2C(C)CC3O)CC1)c1ccc(Cl)cc1 (configuration not stated) + CC(Nc1ccc2c(c1)OCCn1cc(N3C(=O)OCC3C(F)F)nc1-2)C(N)=O
IC50 (second compound 0.00316 µM): > 10 µM | IC50 (second compound 0.01 µM): > 10 µM | IC50 (second compound 0.0316 µM): > 10 µM | IC50 (second compound 0.1 µM): > 10 µM | IC50 (second compound 0.316 µM): > 10 µM | IC50 (second compound 1 µM): > 10 µM | viability, T/C (second compound 0.00316 µM, first compound 0.0316 µM): 86% | viability, T/C (second compound 0.00316 µM, first compound 0.1 µM): 95.3% | viability, T/C (second compound 0.00316 µM, first compound 0.316 µM): 98.6% | viability, T/C (second compound 0.00316 µM, first compound 1 µM): 98.1% | viability, T/C (second compound 0.00316 µM, first compound 3.16 µM): 85.3% | viability, T/C (second compound 0.00316 µM, first compound 10 µM): 66.8% | viability, T/C (second compound 0.01 µM, first compound 0.0316 µM): 87.2% | viability, T/C (second compound 0.01 µM, first compound 0.1 µM): 88% | viability, T/C (second compound 0.01 µM, first compound 0.316 µM): 91.6% | viability, T/C (second compound 0.01 µM, first compound 1 µM): 91.8% | viability, T/C (second compound 0.01 µM, first compound 3.16 µM): 82.1% | viability, T/C (second compound 0.01 µM, first compound 10 µM): 54.7% | viability, T/C (second compound 0.0316 µM, first compound 0.0316 µM): 105% | viability, T/C (second compound 0.0316 µM, first compound 0.1 µM): 91.6% | viability, T/C (second compound 0.0316 µM, first compound 0.316 µM): 88.7% | viability, T/C (second compound 0.0316 µM, first compound 1 µM): 88.4% | viability, T/C (second compound 0.0316 µM, first compound 3.16 µM): 78.5% | viability, T/C (second compound 0.0316 µM, first compound 10 µM): 53.6% | viability, T/C (second compound 0.1 µM, first compound 0.0316 µM): 79.8% | viability, T/C (second compound 0.1 µM, first compound 0.1 µM): 71.1% | viability, T/C (second compound 0.1 µM, first compound 0.316 µM): 76% | viability, T/C (second compound 0.1 µM, first compound 1 µM): 80% | viability, T/C (second compound 0.1 µM, first compound 3.16 µM): 62% | viability, T/C (second compound 0.1 µM, first compound 10 µM): 67.5% | viability, T/C (second compound 0.316 µM, first compound 0.0316 µM): 57.9% | viability, T/C (second compound 0.316 µM, first compound 0.1 µM): 81.2% | viability, T/C (second compound 0.316 µM, first compound 0.316 µM): 64.3% | viability, T/C (second compound 0.316 µM, first compound 1 µM): 65% | viability, T/C (second compound 0.316 µM, first compound 3.16 µM): 73.7% | viability, T/C (second compound 0.316 µM, first compound 10 µM): 46% | viability, T/C (second compound 1 µM, first compound 0.0316 µM): 64.9% | viability, T/C (second compound 1 µM, first compound 0.1 µM): 57.1% | viability, T/C (second compound 1 µM, first compound 0.316 µM): 53.5% | viability, T/C (second compound 1 µM, first compound 1 µM): 55.3% | viability, T/C (second compound 1 µM, first compound 3.16 µM): 52.5% | viability, T/C (second compound 1 µM, first compound 10 µM): 53.5%
